The assay concerns the target voltage-dependent anion channel 1 (VDAC1) (Homo sapiens, UniProt P21796). Description: microscale thermophoresis (MST); supported by dose-dependent DARTS in HepG2 mitochondrial lysate (EC50 […]) and loss of protection in D9A/E203A mutants. The class given is binding.

Structures are written as SMILES.

voltage-dependent anion channel 1 (VDAC1), sequence (P21796 2-283): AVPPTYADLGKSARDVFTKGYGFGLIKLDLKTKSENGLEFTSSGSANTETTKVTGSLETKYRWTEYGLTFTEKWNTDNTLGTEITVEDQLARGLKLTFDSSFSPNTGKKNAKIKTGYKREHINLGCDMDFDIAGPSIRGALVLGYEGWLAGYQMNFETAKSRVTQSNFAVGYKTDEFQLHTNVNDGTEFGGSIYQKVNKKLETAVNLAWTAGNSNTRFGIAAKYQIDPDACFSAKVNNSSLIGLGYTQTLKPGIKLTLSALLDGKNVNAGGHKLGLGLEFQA

`CN(C)C(=N)N=C(N)N` [Metformin] returned a dissociation constant Kd of 204 µM.
